Test results as given in patent publication US20230405140A1, “ANTI-CD56 ANTIBODY-DRUG CONJUGATES AND THEIR USE IN THERAPY” (MCSAF INSIDE ONCOLOGY, priority 2020, published 2023).
Non-standard residues stand in square brackets, D forms with d. Residues, ends and D or L forms follow the SMILES beside them. *: point of attachment. Dolaproine = CO[C@@H]([C@@H]1CCCN1)[C@@H](C)C(=O)O; Dil = CC[C@H](C)[C@H](NC)[C@@H](CC(=O)O)OC; X1 = C[C@@H](N*)[C@@H](O)c1ccccc1; NMeV = CN[C@H](C(=O)O)C(C)C

Assays:
Test in all cases: XTT assay, ADC-mediated cytotoxicity
Format in all cases: cell-based
H209 = conditions: 4 days, read-out: H209 n = 3 IC50
Protocol: (§1) To evaluate cell viability and cellular metabolic activity, XTT assays were performed according to standard protocols. WaGa, PeTa, H69, H209, H660 cell lines were plated in 3 replicates in a 96-well plate with 5.10^4 cells/well. […] Untreated cells were used as viability reference. Cells treated with 1% Triton X100 were used as cell death positive control. After 4 days, 25 μL XTT reagent at 1 mg/mL (Alfa Aesar, thermo Fisher) with N-methyl dibenzopyrazine methyl sulfate (PMS) activator (25 μM) was added per well and absorbance was measured at 450 nm after 4 h incubation. Absorbance at 620 nm was used as a reference. Three independent experiments have been performed.

H69 = conditions: 4 days, read-out: H69 n = 3 IC50
Protocol: as §1

WaGa CRISPR CD56 = conditions: 4 days, CD56− cells, read-out: WaGa CRISPR CD56 n = 3 IC50
Protocol: as §1

PeTa = conditions: 4 days, read-out: PeTa n = 3 IC50
Protocol: as §1

WaGa = conditions: 4 days, read-out: WaGa n = 3 IC50
Protocol: as §1

MKL-1 CRISPR CD56 = conditions: 4 days, CD56− cells, read-out: MKL-1 CRISPR CD56 n = 3 IC50

CC[C@H](C)[C@@H]([C@@H](CC(=O)N1CCC[C@H]1[C@H](OC)[C@@H](C)C(=O)N[C@H](C)[C@@H](O)c1ccccc1)OC)N(C)C(=O)[C@@H](NC(=O)[C@@H](NC)C(C)C)C(C)C [MMAE, monomethyl auristatin E, reference compound] (H-[NMeV]V[Dil][Dolaproine]-X1)
IC50 (H209): 2.24 nM | IC50 (H69): 0.888 nM | IC50 (WaGa CRISPR CD56): 0.942 nM | IC50 (PeTa): 1.11 nM | IC50 (WaGa): 3.07 nM | IC50 (MKL-1 CRISPR CD56): 0.856 nM
